Assay results as given in patent US20210332024A1, “MODULATORS OF PIN1 ACTIVITY AND USES THEREOF” (Yeda Research and Development Co. Ltd., priority 2019, published 2021).
Where “and” joins values, the source holds several entries; their conditions need not be identical. Identical values can stand only once. Like-named read-outs stand apart in the source and are kept apart here.

Columns and labels:
Pin1 in PATU-8988T cells = biological target: T1, Pin1 in PATU-8988T cells (Homo sapiens, UniProt Q13526); assay: Live cell competition assay with Pin1-3-DTB pull-down, PATU-8988T cells; type: cell-based
T1 construct: endogenous in cells; host or cells: PATU-8988T
Description: The indicated cells were treated with increasing concentrations of either DMSO, Pin1-3, or Pin1-3-AcA for 5 hours. Cells were harvested by scraping and washed twice with PBS before lysis with 50 mM HEPES (pH 7.4), 1 mM EDTA, 10% glycerol, 1 mM TCEP, 150 mM NaCl, 1 mM EDTA, 0.5% NP-40, and protease inhibitor tablet (Roche cat. #4693159001). After clarifying (14,000 rpm for 15 minutes), samples were treated with the indicated concentrations of Pin1-3-DTB at 4° C. for 1 hour. Lysates were then incubated with streptavidin agarose resin (Thermo Scientific, cat. #20349) for 1.5 hour at 4° C. Beads were washed four times with 500 μl of washing buffer (50 mM HEPES (pH 7.5), 10 mM NaCl, 1 mM EDTA, 10% glycerol), then pelleted by centrifugation and dried. The beads were boiled for 5 minutes at 95° C. in 2×LDS+10% β-mercaptoethanol. Proteins of interest were then assessed via Western blotting using the bolt system (Life Technologies).
The indicated cells were plated in 10 cm plates with 2.5 million cells per plate in 6 ml of medium. The day after plating, cells were treated with the indicated concentrations of candidate inhibitor for the indicated time points. The cells were then washed two times with cold phosphate buffer saline (1 ml per 10 cm plate) and collected by scraping with a cell scraper. Cells were lysed in 50 mM HEPES (pH 7.4), 1 mM EDTA, 10% glycerol, 1 mM TCEP, 150 mM NaCl, 1 mM EDTA, 0.5% NP-40, and protease inhibitor tablet (Roche)-using 210 μl of cell lysis buffer per 10 cm plate of cells. After clarifying (14,000 rpm for 15 minutes), 9 μl of each lysate sample was combined with […] of 4×LDS+10% β-mercaptoethanol (in a ratio of 3:1), boiled for 5 minutes, and set aside for the input loading control. Then, 200 μl of each lysate sample was incubated with 1 μM of Pin1-3-DTB for 1 hour at 4° C. and processed as described hereinabove for the lysate pull-down assays.
In order to assess cell permeability of Pin1-3 as well as its ability to engage cellular Pin1, PATU-8988T cells were treated with Pin1-3 (0.25 to 1 μM) for 5 hours. After cell lysis, the lysates were incubated with Pin1-3-DTB (1 μM, 1 hour at 4° C.) and probe-labeled targets were pulled down with streptavidin beads.

Acute toxic model = type: in vivo, mice; details: 10, 20 or 40 mg/kg intraperitoneally every day for two weeks
Description: Toxicity of Pin1-3 was then evaluated in an acute toxic model. Mice were injected with 10, 20 or 40 mg/kg Pin1-3 intraperitoneally every day for two weeks.

[1] = Metabolic stability in hepatic microsomes; type: in vitro ADME; details: liver microsomes; mouse hepatic microsomes
[2] = tested on: KPC mouse derived tumor cells; assay: KPC orthotopic transplantation mouse model; type: in vivo, mice; details: IP 20 or 40 mg/kg every day
Description: 10^6 KPC (KrasLSL.G12D/+; p53R172H/+; PdxCretg/+) mouse derived tumor cells were transplanted into B6 mice pancreas (orthotopic transplantation). After 1 week of the transplantation, treatment of mice with Pin1-3 began. Mice were treated (IP) with Pin1-3 diluted solution (as a control), or 20 or 40 mg/kg every day. Tumor size was measured, and when the tumor size in control group reached 2 cm, mice were sacrificed to collect tumor tissue (n=4), and Kaplan-Meier survival analysis (n=8) was performed.

[3] = Pharmacokinetics, oral administration; type: in vivo, Male C57Bl/6J mice; details: for AUC(0-inf): read-out: AUCINF obs. (converted)
Description: Male C57Bl/6J mice received Pin1-3 intravenously (as a 0.2 mg/ml solution in 5/5/90 NMP/Solutol/saline) or orally (as a 1 mg/ml solution in 5/5/90 NMP/Solutol/saline). The intravenous dosage was 2 mg/kg and the oral dosage was 10 mg/kg.

Pin1 = biological target: T2, Pin1 (Mus musculus, UniProt Q9QUR7); assay: In vivo Pin1 engagement, spleen competition pull-down; design: species or system mice
T2 construct: from tissue; host or cells: mouse spleen
Description: The in vivo engagement of Pin1 by Pin1-3 was then assessed using Pin1-3-DTB. Mice were treated with either vehicle, 10 mg/kg or 20 mg/kg Pin1-3 by oral gavage (QD) for 3 days, followed by lysis of the spleens for a competition pull-down experiment.

[4] = tested on: Pin1-knockout pancreatic cancer cells; assay: Organoid growth in Matrigel, Pin1-knockout PATU-8988T; type: cell-based; details: 1 μM, 9 days
Description: As three dimensional (3D) organoid models can reflect in vivo results better than monolayer cell culture [Baker et al., Trends Cancer Res 2016, 2:176-190], the anti-proliferative activity of Pin1-3 in PATU-8988T was further evaluated in wild-type or Pin1-knockout cells grown as organoids in Matrigel™ droplets. Cells were treated for 9 days with Pin1-3 (or Pin1-3-AcA or vehicle as a control), replenishing the compound in media every 3 days.

[5] = male, C57Bl/6J, mouse, in vivo, po, 10 mg/kg, oral 10 mg/kg, Avg. of 3 mice
[6] = male, C57Bl/6J, mouse, in vivo, po, 10 mg/kg, oral 10 mg/kg, individual mice No. 1-3
[7] = oral 10 mg/kg, individual mice No. 1-3, 10 mg/kg

T1 sequence (Q13526 whole entry): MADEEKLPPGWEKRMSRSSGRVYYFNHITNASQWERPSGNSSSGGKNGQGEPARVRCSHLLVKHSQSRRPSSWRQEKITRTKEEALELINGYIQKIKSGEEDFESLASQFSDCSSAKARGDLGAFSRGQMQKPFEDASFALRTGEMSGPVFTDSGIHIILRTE
T2 sequence (Q9QUR7 whole entry): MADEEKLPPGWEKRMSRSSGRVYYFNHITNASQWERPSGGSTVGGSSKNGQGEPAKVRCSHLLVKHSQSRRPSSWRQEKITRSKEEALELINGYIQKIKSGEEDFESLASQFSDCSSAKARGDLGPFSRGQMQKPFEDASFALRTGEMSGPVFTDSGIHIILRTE

For CC(C)(C)CN(C(=O)CCl)C1CCS(=O)(=O)C1 (stereo not drawn) [Pin1-3, 2-chloro-N-(sulfolan-3-yl)-N-neopentylacetamide], the “Engagement of Pin1 after 2 hours” value (Pin1 in PATU-8988T cells; 1 μM) was “about 50%”, the “Time to complete engagement of Pin1” value (Pin1 in PATU-8988T cells; 1 μM) was no more than 4 h and the “Competition with Pin1-3-DTB for Pin1 binding (pull-down)” value (Pin1 in PATU-8988T cells; 0.25 to 1 μM for 5 hours (Pin1-3-AcA 1 μM)) was “dose-dependent inhibition of Pin1-3-DTB pull-down”. For the same compound, the “Concentration of maximal competition” value (Pin1 in PATU-8988T cells; 5 hours) was 1 µM, the Adverse effects (Acute toxic model) was “No adverse effects” and the Post-mortem examination (Acute toxic model) was “no pathologies”. The Weight (Acute toxic model) was “normal”, the half-life [1] was 41 min and the KPC tumor growth [2] was “inhibited KPC tumor growth”. The “Survival (Kaplan-Meier)” value [2] was “enhanced survival”, the AUC(0-t) [3, 5] was 9210 ng·h/mL and 32.8 µM·h and the Tmax [3, 5] was 25.2 min. The half-life [3, 5] was 49.2 min, the AUC(0-inf) [3, 5] was 9.23 µg·h/mL and the Cmax ([3]; male, C57Bl/6J, mouse, in vivo, po, 10 mg/kg, oral 10 mg/kg, Avg. of 3 mice, read-out: Cmax) was 11.5 µM and 3220 ng/mL. The AUC(0-t) [3, 6] was 9590 ng·h/mL and 34.1 µM·h, the Tmax [3, 6] was 15 min and the half-life [3, 6] was 38.4 min. The AUC(0-inf) [3, 6] was 9.6 µg·h/mL, the Cmax ([3]; male, C57Bl/6J, mouse, in vivo, po, 10 mg/kg, oral 10 mg/kg, individual mice No. 1-3, read-out: Cmax) was 4050 ng/mL and 14.4 µM and the bioavailability ([3]; male, C57Bl/6J, mouse, in vivo, oral 10 mg/kg vs intravenous 2 mg/kg, Avg., read-out: F % (oral bioavailability)) was 30.4%. For the same compound, the AUC % extrap. ([3]; oral 10 mg/kg, Avg. of 3 mice) was 0.24%, the Cl obs. ([3]; oral 10 mg/kg, Avg. of 3 mice) was 1.089 L/h/kg and the AUC % extrap. [3, 7] was 0.03% and 0.32% and 0.38%. For the same compound, the AUCINF obs. [3, 7] was 498172 ng·min/mL and 587646 ng·min/mL, the AUClast [3, 7] was 496559 min*ng/ml and 29.4 hr*μM and 585438 min*ng/ml and 34.7 hr*μM and the Cl obs. [3, 7] was 1.042 L/h/kg and 1.204 L/h/kg and 1.021 L/h/kg. For the same compound, the Cmax [3, 7] was 2420 ng/mL and 3200 ng/mL, the T1/2 [3, 7] was 54.6 min and 55.2 min and the Cmax ([3]; oral 10 mg/kg, individual mice No. 1-3, 10 mg/kg, read-out: Cmax) was 8.61 µM and 11.4 µM. The “Mice with effective Pin1 engagement” value (Pin1; 10 mg/kg oral gavage QD for 3 days) was 1 of the 3 mice, the “Mice with effective Pin1 engagement” value (Pin1; 20 mg/kg oral gavage QD for 3 days) was “all 3 mice” and the Organoid growth [4] was “no effect”.
